Data reported in paper PMC2697262 (Biochemistry, 2009).

Columns and labels:
[1] = biological target: orotidine 5’-monophosphate decarboxylase (MtOMPDC) (Methanothermobacter thermautotrophicus, UniProt O26232); assay: X-ray crystal structure, […] Å; assay type: biochemical
[2] = biological target: orotidine 5’-monophosphate decarboxylase (MtOMPDC) (Methanothermobacter thermautotrophicus, UniProt O26232, D70G)
Chain of orotidine 5’-monophosphate decarboxylase (MtOMPDC) (Methanothermobacter thermautotrophicus, UniProt O26232, D70G) (O26232 whole entry D70G): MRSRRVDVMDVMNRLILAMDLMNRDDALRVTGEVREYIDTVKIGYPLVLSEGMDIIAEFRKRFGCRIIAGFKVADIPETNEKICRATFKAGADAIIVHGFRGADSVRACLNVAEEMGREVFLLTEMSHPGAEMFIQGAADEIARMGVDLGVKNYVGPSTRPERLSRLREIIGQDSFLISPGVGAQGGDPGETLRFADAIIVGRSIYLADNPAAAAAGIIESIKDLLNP

Chain of orotidine 5’-monophosphate decarboxylase (MtOMPDC) (Methanothermobacter thermautotrophicus, UniProt O26232) (O26232 whole entry): as the sequence (O26232 whole entry D70G) above, with G70D counted along it

SMILES | Ki [1] [µM] | X-ray crystal structure, 1.3 Å; also H6 exchange by NMR [2]
O=C1CC(C(=O)O)N([C@@H]2O[C@H](COP(=O)(O)O)[C@@H](O)[C@H]2O)C(=O)N1 (stereo partly drawn) [(6R)-H2OMP] | 100 | –
O=c1[nH]c(=O)n([C@@H]2O[C@H](COP(=O)(O)O)[C@@H](O)[C@H]2O)cc1F [FUMP] | – | structures were obtained for D70G in the absence of ligands and complexed with UMP and FUMP
